This passage reports Ki results from patent US9957263B2, “Bromodomain inhibitors” (AbbVie Inc., priority 2013, dated 2018).

One experiment has as its target BRD4 (BDII_E352-M457) (Homo sapiens (Human), UniProt O60885). In words: TR-FRET bromodomain binding assay, BRD4 second bromodomain. As to conditions: His-tagged BD2, Alexa647-labeled probe 30 nM. As for the experimental part: (§1) A time-resolved fluorescence resonance energy transfer (TR-FRET) assay was used to determine the affinities of compounds of the Examples listed in Table 1 for each bromodomain of BRD4. His-tagged first (BD1: amino acids K57-E168) and second (BD2: amino acids E352-E168) bromodomains of BRD4 were expressed and purified. An Alexa647-labeled BET-inhibitor was used as the fluorescent probe in the assay.
(§2) Compound dilution series were prepared in DMSO via a 3-fold serial dilution from 2.5 mM to 42 nM. Compounds were then diluted 6:100 in assay buffer (20 mM Sodium Phosphate, pH 6.0, 50 mM NaCl, 1 mM Ethylenediaminetetraacetic acid disodium salt dihydrate, 0.01% Triton X-100, 1 mM DL-Dithiothreitol) to yield 3× working solutions. Six microliters (μL) of the working solution was then transferred to white, low-volume assay plates (Costar #3673). A 1.5× assay mixture containing His-tagged bromodomain, Europium-conjugated anti-His antibody (Invitrogen PV5596) and the Alexa-647-conjugated probe molecule was also prepared. Twelve μL of this solution were added to the assay plate to reach a final volume of 18 μL. The final concentration of 1× assay buffer contains 2% DMSO, 50 μM-0.85 nM compound, 8 nM His-tagged bromodomain, 1 nM Europium-conjugated anti-His-tag antibody and 100 nM or 30 nM probe (for BDI or BDII, respectively). After a one-hour incubation at room temperature, TR-FRET ratios were determined using an Envision multilabel plate reader (Ex 340, Em […]).
(§3) TR-FRET data were normalized to the means of 24 no-compound controls (“high”) and 8 controls containing 1 μM un-labeled probe (“low”). Percent inhibition was plotted as a function of compound concentration and the data were fit with the 4 parameter logistic equation to obtain IC50s. Inhibition constants (Ki) were calculated from the IC50s, probe Kd and probe concentration. Typical Z′ values were between 0.65 and 0.75. The minimum significant ratio was determined to evaluate assay reproducibility (Eastwood et al., (2006) J Biomol Screen, 11: 253-261). The MSR was determined to be 2.03 for BDI and 1.93 for BDII, and a moving MSR (last six run MSR overtime) for both BDI and BDII was typically <3.

A further experiment has as its target BRD4 (BDI_K57-E168) (Homo sapiens (Human), UniProt O60885). In words: TR-FRET bromodomain binding assay, BRD4 first bromodomain. As to conditions: His-tagged BD1, Alexa647-labeled probe 100 nM. The protocol: as §1, §2, §3

In the case of `Cn1cc(-c2cc(S(C)(=O)=O)ccc2Oc2cccc(NS(=O)(=O)c3ccc(F)cc3F)c2)c2cc[nH]c2c1=O` [Example 47, 2,4-difluoro-N-{3-[2-(6-methyl-7-oxo-6,7-dihydro-1H-pyrrolo[2,3-c]pyridin-4-yl)-4-(methylsulfonyl)phenoxy]phenyl}benzenesulfonamide], the inhibitory constant (Ki) (usually a dissociation constant, usually derived from enzyme kinetics or from competition with a known ligand) on BRD4 (BDII_E352-M457) was 2.7 nM; on BRD4 (BDI_K57-E168), 5.9 nM.

Take `Cn1cc(-c2cc(S(C)(=O)=O)ccc2Oc2cccc(NS(=O)(=O)c3cccc(OC(F)F)c3)c2)c2cc[nH]c2c1=O` [Example 48, 3-(difluoromethoxy)-N-{3-[2-(6-methyl-7-oxo-6,7-dihydro-1H-pyrrolo[2,3-c]pyridin-4-yl)-4-(methylsulfonyl)phenoxy]phenyl}benzenesulfonamide]: the inhibitory constant (Ki) came out at 2.4 nM on BRD4 (BDII_E352-M457) and 7.8 nM on BRD4 (BDI_K57-E168).

As for `Cn1cc(-c2cc(S(C)(=O)=O)ccc2Oc2cccc(NS(=O)(=O)C3CC3)c2)c2cc[nH]c2c1=O` [Example 49, N-{3-[2-(6-methyl-7-oxo-6,7-dihydro-1H-pyrrolo[2,3-c]pyridin-4-yl)-4-(methylsulfonyl)phenoxy]phenyl}cyclopropanesulfonamide], the Ki at BRD4 (BDII_E352-M457) stood at 1 nM; on BRD4 (BDI_K57-E168), 4.4 nM.

With `Cc1cccc(S(=O)(=O)Nc2cccc(Oc3ccc(S(C)(=O)=O)cc3-c3cn(C)c(=O)c4[nH]ccc34)c2)c1` [Example 50, 3-methyl-N-{3-[2-(6-methyl-7-oxo-6,7-dihydro-1H-pyrrolo[2,3-c]pyridin-4-yl)-4-(methylsulfonyl)phenoxy]phenyl}benzenesulfonamide], the Ki was found to be 1.2 nM at BRD4 (BDII_E352-M457) and 3.4 nM at BRD4 (BDI_K57-E168).

Regarding `Cn1cc(-c2cc(S(C)(=O)=O)ccc2Oc2cccc(NS(=O)(=O)c3cccc([N+](=O)[O-])c3)c2)c2cc[nH]c2c1=O` [Example 51, N-{3-[2-(6-methyl-7-oxo-6,7-dihydro-1H-pyrrolo[2,3-c]pyridin-4-yl)-4-(methylsulfonyl)phenoxy]phenyl}-3-nitrobenzenesulfonamide], the inhibition constant (Ki) on BRD4 (BDII_E352-M457) amounted to 3 nM; on BRD4 (BDI_K57-E168) it was 5 nM.

For the molecule `Cc1cc(F)ccc1S(=O)(=O)Nc1cccc(Oc2ccc(S(C)(=O)=O)cc2-c2cn(C)c(=O)c3[nH]ccc23)c1` [Example 52, 4-fluoro-2-methyl-N-{3-[2-(6-methyl-7-oxo-6,7-dihydro-1H-pyrrolo[2,3-c]pyridin-4-yl)-4-(methylsulfonyl)phenoxy]phenyl}benzenesulfonamide], the Ki stood at 1.1 nM on BRD4 (BDII_E352-M457) and 2 nM on BRD4 (BDI_K57-E168).

Consider `Cn1cc(-c2cc(S(C)(=O)=O)ccc2Oc2cccc(NS(=O)(=O)c3ccc(S(C)(=O)=O)cc3)c2)c2cc[nH]c2c1=O` [Example 54, N-{3-[2-(6-methyl-7-oxo-6,7-dihydro-1H-pyrrolo[2,3-c]pyridin-4-yl)-4-(methylsulfonyl)phenoxy]phenyl}-4-(methylsulfonyl)benzenesulfonamide], for which the Ki at BRD4 (BDII_E352-M457) came to 1.1 nM; at BRD4 (BDI_K57-E168), 3.2 nM.

Regarding `Cn1cc(-c2cc(S(C)(=O)=O)ccc2Oc2cccc(NS(=O)(=O)c3ccccc3C#N)c2)c2cc[nH]c2c1=O` [Example 55, 2-cyano-N-{3-[2-(6-methyl-7-oxo-6,7-dihydro-1H-pyrrolo[2,3-c]pyridin-4-yl)-4-(methylsulfonyl)phenoxy]phenyl}benzenesulfonamide], the Ki on BRD4 (BDII_E352-M457) came out at 2.8 nM; on BRD4 (BDI_K57-E168), 6.9 nM.

As for `Cn1cc(-c2cc(S(C)(=O)=O)ccc2Oc2cccc(NS(=O)(=O)c3ccc(C#N)cc3)c2)c2cc[nH]c2c1=O` [Example 56, 4-cyano-N-{3-[2-(6-methyl-7-oxo-6,7-dihydro-1H-pyrrolo[2,3-c]pyridin-4-yl)-4-(methylsulfonyl)phenoxy]phenyl}benzenesulfonamide], the values for the Ki on BRD4 (BDII_E352-M457) and at BRD4 (BDI_K57-E168) were 3.4 nM and 8.8 nM, respectively.

For the molecule `Cn1cc(-c2cc(S(C)(=O)=O)ccc2Oc2cccc(NS(=O)(=O)c3cccc(C#N)c3)c2)c2cc[nH]c2c1=O` [Example 57, 3-cyano-N-{3-[2-(6-methyl-7-oxo-6,7-dihydro-1H-pyrrolo[2,3-c]pyridin-4-yl)-4-(methylsulfonyl)phenoxy]phenyl}benzenesulfonamide], the values for the inhibition constant (Ki) on BRD4 (BDII_E352-M457) and at BRD4 (BDI_K57-E168) were 2.2 nM and 5.3 nM, respectively.
